Experimental data from article PMC6151695, “Novel Selective Estrogen Receptor Ligand Conjugates Incorporating Endoxifen-Combretastatin and Cyclofenil-Combretastatin Hybrid Scaffolds: Synthesis and Biochemical Evaluation” (Molecules : A Journal of Synthetic Chemistry and Natural …, 2017).
Marks after values point to notes of the source that are not given here.

Assays:
SK-OV-3 = experiment: NCI60 in vitro screen, Ovarian cancer; type: cell-based, human
SR = experiment: NCI60 in vitro screen, Leukemia; type: cell-based, human
SK-MEL-5 = experiment: NCI60 in vitro screen, Melanoma; type: cell-based, human
OVCAR-3 = experiment: NCI60 in vitro screen, Ovarian cancer; type: cell-based, human
OVCAR-8 = experiment: NCI60 in vitro screen, Ovarian cancer; type: cell-based, human
U251 = experiment: NCI60 in vitro screen, CNS Cancer; type: cell-based, human
NCI/ADR-RES = experiment: NCI60 in vitro screen, Ovarian cancer; type: cell-based, human
SNB-75 = experiment: NCI60 in vitro screen, CNS Cancer; type: cell-based, human
HOP-62 = experiment: NCI60 in vitro screen, Non-Small Cell Lung Cancer; type: cell-based, human
ACHN = experiment: NCI60 in vitro screen, Renal cancer; type: cell-based, human
HCT-2998 = experiment: NCI60 in vitro screen, Colon Cancer; type: cell-based, human
HT29 = experiment: NCI60 in vitro screen, Colon Cancer; type: cell-based, human
KM12 = experiment: NCI60 in vitro screen, Colon Cancer; type: cell-based, human
SF-268 = experiment: NCI60 in vitro screen, CNS Cancer; type: cell-based, human
RPMI-8226 = experiment: NCI60 in vitro screen, Leukemia; type: cell-based, human
786-0 = experiment: NCI60 in vitro screen, Renal cancer; type: cell-based, human
M14 = experiment: NCI60 in vitro screen, Melanoma; type: cell-based, human
OVCAR-4 = experiment: NCI60 in vitro screen, Ovarian cancer; type: cell-based, human
SW-620 = experiment: NCI60 in vitro screen, Colon Cancer; type: cell-based, human
LOX IMV1 = experiment: NCI60 in vitro screen, Melanoma; type: cell-based, human
physchem = settings: buffer
UO-31 = experiment: NCI60 in vitro screen, Renal cancer; type: cell-based, human
SK-MEL-2 = experiment: NCI60 in vitro screen, Melanoma; type: cell-based, human
T-47D = experiment: NCI60 in vitro screen, Breast cancer; type: cell-based, human
BT-549 = experiment: NCI60 in vitro screen, Breast cancer; type: cell-based, human
MDA-MB-468 = experiment: NCI60 in vitro screen, Breast cancer; type: cell-based, human
OVCAR-5 = experiment: NCI60 in vitro screen, Ovarian cancer; type: cell-based, human
HCT-15 = experiment: NCI60 in vitro screen, Colon Cancer; type: cell-based, human
HOP-92 = experiment: NCI60 in vitro screen, Non-Small Cell Lung Cancer; type: cell-based, human
RXF 393 = experiment: NCI60 in vitro screen, Renal cancer; type: cell-based, human
60 cancer cell lines = experiment: NCI 60 cell line screen, whole panel; type: cell-based, human
NCI-H332M = experiment: NCI60 in vitro screen, Non-Small Cell Lung Cancer; type: cell-based, human
UACC-62 = experiment: NCI60 in vitro screen, Melanoma; type: cell-based, human
HS 578T = experiment: NCI60 in vitro screen, Breast cancer; type: cell-based, human
[1] = system: MCF-7 human breast cancer cell line; experiment: Alamar Blue assay for antiproliferative effects; type: cell-based; settings: Homo sapiens, MCF7, 72 h, MCF-7, 72 h, Alamar Blue; read-out: IC50 (μM), antiproliferative effects
A498 = experiment: NCI60 in vitro screen, Renal cancer; type: cell-based, human

CC/C(=C(\c1ccccc1)c1ccc(OCCN(C)C(=O)CCC(=O)Oc2cc(/C=C\c3cc(OC)c(OC)c(OC)c3)ccc2OC)cc1)c1ccccc1 (mixture of isomers) [Compound 16a, N-{2-[4-((Z)-1,2-Diphenylbut-1-enyl)phenoxy]ethyl}-N-methylsuccinamic acid 2-methoxy-5-[(Z)-2-(3,4,5-trimethoxyphenyl)vinyl]phenyl ester]
GI50 (SK-OV-3; Homo sapiens, SK-OV-3): 36.8 nM | Growth % (10^−5 M) (SK-OV-3; SK-OV-3, 10 μM): 17.23% | Growth % (10^−5 M) (SR; 10 μM): 29.68% | GI50 (SR; Homo sapiens): 18.9 nM | GI50 (SK-MEL-5; Homo sapiens, SK-MEL-5): 20.1 nM | Growth % (10^−5 M) (SK-MEL-5; SK-MEL-5, 10 μM): −34.34 ^e % | GI50 (OVCAR-3; Homo sapiens, OVCAR-3): < 10 nM | Growth % (10^−5 M) (OVCAR-3; OVCAR-3, 10 μM): −57.79 ^e % | GI50 (OVCAR-8; Homo sapiens, OVCAR-8): 49 nM | Growth % (10^−5 M) (OVCAR-8; OVCAR-8, 10 μM): 12.79% | GI50 (U251; Homo sapiens, U-251, U251): 31.6 nM | inhibition at 10 µM (U251; Homo sapiens, U-251, U251, one-dose, 10 μM, read-out: growth inhibition): 90% | Growth % (10^−5 M) (U251; U251, 10 μM): 10.13% | Growth % (10^−5 M) (NCI/ADR-RES; 10 μM): −41.32 ^e % | GI50 (NCI/ADR-RES; Homo sapiens): 11.1 nM | GI50 (SNB-75; Homo sapiens, SNB-75): 16.6 nM | Growth % (10^−5 M) (SNB-75; SNB-75, 10 μM): 39.46% | Growth % (10^−5 M) (HOP-62; HOP-62, 10 μM): 35.29% | GI50 (HOP-62; Homo sapiens, HOP-62): 49.2 nM | Growth % (10^−5 M) (ACHN; 10 μM): 22.73% | GI50 (ACHN; Homo sapiens): 45.5 nM | Growth % (10^−5 M) (HCT-2998; HCT-2998, 10 μM): 4.72% | inhibition at 10 µM (HCT-2998; Homo sapiens, HCC-2998, one-dose, 10 μM, read-out: growth inhibition): 95% | GI50 (HCT-2998; Homo sapiens, HCT-2998): 31.7 nM | Growth % (10^−5 M) (HT29; HT29, 10 μM): 6.79% | GI50 (HT29; Homo sapiens, HT-29, HT29): 489 nM | inhibition at 10 µM (HT29; Homo sapiens, HT-29, HT29, one-dose, 10 μM, read-out: growth inhibition): 93% | GI50 (KM12; Homo sapiens, KM12): < 10 nM | Growth % (10^−5 M) (KM12; KM12, 10 μM): −37 ^e % | GI50 (SF-268; Homo sapiens, SF-268): 25.3 nM | Growth % (10^−5 M) (SF-268; SF-268, 10 μM): 18.51% | GI50 (RPMI-8226; Homo sapiens, RPMI-8226): 27.1 nM | Growth % (10^−5 M) (RPMI-8226; RPMI-8226, 10 μM): −18.51 ^e % | Growth % (10^−5 M) (786-0; 786-0, 10 μM): 11.54% | GI50 (786-0; Homo sapiens, 786-0): 185 nM | GI50 (M14; Homo sapiens, M14): 12.9 nM | inhibition at 10 µM (M14; Homo sapiens, M14, one-dose, 10 μM, read-out: growth inhibition): 99% | Growth % (10^−5 M) (M14; M14, 10 μM): 1.39% | GI50 (OVCAR-4; Homo sapiens, OVCAR-4): 62.8 nM | Growth % (10^−5 M) (OVCAR-4; OVCAR-4, 10 μM): 30.96% | GI50 (SW-620; Homo sapiens, SW-620): < 10 nM | Growth % (10^−5 M) (SW-620; SW-620, 10 μM): 28.17% | GI50 (LOX IMV1; Homo sapiens, LOX IMV1): 35.8 nM | Growth % (10^−5 M) (LOX IMV1; LOX IMV1, 10 μM): 28.97% | half-life at 14.6 µg/mL (physchem): > 20 h | GI50 (UO-31; Homo sapiens, UO-31): 88.4 nM | Growth % (10^−5 M) (UO-31; UO-31, 10 μM): 31.52% | GI50 (SK-MEL-2; Homo sapiens, SK-MEL-2): > 10000 nM | Growth % (10^−5 M) (SK-MEL-2; SK-MEL-2, 10 μM): 37.97% | Growth % (10^−5 M) (T-47D; 10 μM): 59.73% | GI50 (T-47D; Homo sapiens, T47D): > 10000 nM | Growth % (10^−5 M) (BT-549; BT-549, 10 μM): 7.07% | GI50 (BT-549; Homo sapiens, BT-549): 43.8 nM | inhibition at 10 µM (BT-549; Homo sapiens, BT-549, one-dose, 10 μM, read-out: growth inhibition): 94% | GI50 (MDA-MB-468; Homo sapiens, MDA-MB-468): 34.3 nM | inhibition at 10 µM (MDA-MB-468; Homo sapiens, MDA-MB-468, one-dose, 10 μM, read-out: growth inhibition): 99% | Growth % (10^−5 M) (MDA-MB-468; MDA-MB-468, 10 μM): 0.68% | GI50 (OVCAR-5; Homo sapiens, OVCAR-5): 89.4 nM | Growth % (10^−5 M) (OVCAR-5; OVCAR-5, 10 μM): 34.65% | Growth % (10^−5 M) (HCT-15; HCT-15, 10 μM): 0.71% | GI50 (HCT-15; Homo sapiens, HCT-15): 24.5 nM | inhibition at 10 µM (HCT-15; Homo sapiens, HCT-15, one-dose, 10 μM, read-out: growth inhibition): 99% | Growth % (10^−5 M) (HOP-92; HOP-92, 10 μM): 58.55% | GI50 (HOP-92; Homo sapiens, HOP-92): < 10 nM | GI50 (RXF 393; Homo sapiens, RXF 393): 39.8 nM | Growth % (10^−5 M) (RXF 393; RXF 393, 10 μM): 12.08% | IC50 (60 cancer cell lines; Homo sapiens, 60 cell, read-out: GI50 (IC50) values for most of the 60 cancer cell lines): 10 to 72 nM | GI50 (60 cancer cell lines; Homo sapiens, 60 cell, NCI60 five-dose, read-out: MG-MID (μM), mean of GI50 values over all cell lines): 1.62 µM | inhibition at 10 µM (60 cancer cell lines; Homo sapiens, 60 cell, one-dose, 10 μM, read-out: growth inhibition in a further 10 cell lines): 80 to 89% | MG% (10^−5 M), Mean Growth % over all cell lines (60 cancer cell lines; NCI60 one-dose, 10 μM): 14.74% | Growth % (10^−5 M) (NCI-H332M; 10 μM): 57.18% | GI50 (NCI-H332M; Homo sapiens): 67.2 nM | GI50 (UACC-62; Homo sapiens, UACC-62): 18.1 nM | Growth % (10^−5 M) (UACC-62; UACC-62, 10 μM): 25.13% | Growth % (10^−5 M) (HS 578T; 10 μM): 17.57% | GI50 (HS 578T; Homo sapiens): 25.5 nM | IC50 [1]: 0.09 µM | Growth % (10^−5 M) (A498; A498, 10 μM): 29.47% | GI50 (A498; Homo sapiens, A498): 58.1 nM
